Reference: patent US20130045491A1, “METHODS FOR ACTIVATING T CELLS” (priority 2011, published 2013)

Tests used:
Akt = experiment: Cytokine-dependent Akt phosphorylation in memory T cells treated with inhibitors; assay type: cell-based, human; details: 1-10 μg/mL inhibitor, 48 hours
Experimental: (§1) Peripheral Blood Mononuclear Cells (PBMCs) from healthy individuals (New York Blood Center, New York, N.Y.) were prepared using Ficoll-paque plus (GE Amersham, Uppsala, Sweden). Whole blood samples from rheumatoid arthritis patients were purchased from Bioreclamation (New York, N.Y.) and were processed similar to healthy donor blood. All healthy donor and patient samples were consented prior to purchase, were none-identifiable and approved by institutional human subjects board. CD4^+ T cells were isolated using Dynal CD4 Positive Isolation Kit (Invitrogen, Carlsbad, Calif.) directly from purified PBMCs and were >99% pure. CD4^+ T cells were sorted by FACS ARIA cell sorter (BD, San Jose, Calif.) into CD45RO^+ CD25^− memory T (TM) cells. TM cells were activated either by anti-CD3 and anti-CD28 (aCD3/aCD28) coated beads (1:4 beads:cells ratio) for 18-24 hours, or by Phorbol 12-myristate 13-acetate (PMA) and ionomycin for 4 hours and further FACS sorted based on CCR6 and IL-17 expression into CCR6^−IL-17^−, CCR6^+IL-17^+, or CCR6^+ IL-17^− subsets (as determined by secretion assay labeling, see below). Sorted cells (>99% pure) were cultured in serum-free Xvivo-15 medium (Lonza, Wakersville, Md.) at 37° C. and 5% CO2 for 6-7 days prior to restimulation with PMA and ionomycin (see below). […]

TM cells = experiment: Cell viability of memory T cells treated with inhibitors; details: 1-10 μg/mL inhibitor, 48 hours
CCR6^+ TM cells = experiment: Effect of PI-3K/Akt inhibitors on cytokine production of IL-7-cultured CCR6+ memory T cells; assay type: cell-based, human; details: one week in IL-7, then inhibitor for 48 hours, restimulation
Experimental: (§2) Peripheral Blood Mononuclear Cells (PBMCs) from healthy individuals (New York Blood Center, New York, N.Y.) were prepared using Ficoll-paque plus (GE Amersham, Uppsala, Sweden). Whole blood samples from rheumatoid arthritis patients were purchased from Bioreclamation (New York, N.Y.) and were processed similar to healthy donor blood. All healthy donor and patient samples were consented prior to purchase, were none-identifiable and approved by institutional human subjects board. CD4^+ T cells were isolated using Dynal CD4 Positive Isolation Kit (Invitrogen, Carlsbad, Calif.) directly from purified PBMCs and were >99% pure. CD4^+ T cells were sorted by FACS ARIA cell sorter (BD, San Jose, Calif.) into CD45RO^+ CD25^− memory T (TM) cells. TM cells were activated either by anti-CD3 and anti-CD28 (aCD3/aCD28) coated beads (1:4 beads:cells ratio) for 18-24 hours, or by Phorbol 12-myristate 13-acetate (PMA) and ionomycin for 4 hours and further FACS sorted based on CCR6 and IL-17 expression into CCR6^−IL-17^−, CCR6^+IL-17^+, or CCR6^+ IL-17^− subsets (as determined by secretion assay labeling, see below). Sorted cells (>99% pure) were cultured in serum-free Xvivo-15 medium (Lonza, Wakersville, Md.) at 37° C. and 5% CO2 for 6-7 days prior to restimulation with PMA and ionomycin (see below). […] To determine the fold expansion, CCR6^+IL-17^+ or CCR6^+IL-17^− subsets were labeled with CFSE (Molecular Probes, Eugene, Oreg.) or eFluor 670 (eBioscience, San Diego, Calif.), respectively, as previously described (Oswald-Richter, et al., PLoS Biol 2004; 2: E198). […] In the experiments using PI-3K signaling inhibitors, cells were treated with PI-3K specific inhibitor, LY294002 (EMD, Gibbstown, N.J.), or Akt specific inhibitor, AKTi-1/2 (EMD), for 2 days before PMA and Ionomycin restimulation.

[1] = tested on: resting CCR6^+CD45RO^+CD25^− TM cells; experiment: Cytokine expression in resting CCR6+ memory T cells stimulated with cytokines without TCR stimulation; assay type: cell-based, human
Experimental: as §2, with “[…] […]” for “TM cells were activated either by anti-CD3 and anti-CD28 (aCD3/aCD28) coated beads (1:4 beads:cells ratio) for 18-24 hours, or by Phorbol 12-myristate 13-acetate (PMA) and ionomycin for 4 hours and further FACS sorted based on CCR6 and IL-17 expression into CCR6^−IL-17^−, CCR6^+IL-17^+, or CCR6^+ IL-17^− subsets (as determined by secretion assay labeling, see below). Sorted cells (>99% pure) were cultured in serum-free Xvivo-15 medium (Lonza, Wakersville, Md.) at 37° C. and 5% CO2 for 6-7 days prior to restimulation with PMA and ionomycin (see below).”

RORC = RORC / Foxp3 mRNA expression by quantitative PCR; assay type: cell-based, human; details: unpublished data
Description: Purified T cells (1×10^5) were snap frozen in liquid nitrogen for total RNA isolation. Total RNA was isolated using RNeasy isolation kit (Qiagen, Valencia, Calif.) according to the manufacturer's protocol. The extracted RNA was then reverse transcribed into cDNA and quantified using Taqman Cell to CT kit (Applied Biosystems, Carlsbad, Calif.). Taqman primers and probe sets were purchased from Applied Biosystems: Human KLF2 (Hs00360439_g1), RORC (Hs01076120_g1), Il-17a (Hs00174383_m1), b-Actin (Hs03023880_g1), Foxp3 (Hs00203958_m1). Data was acquired and analyzed on ABI 7500 sequence detection system. Quantitative real-time PCR data was analyzed by normalizing Ct values of genes of interest to the Ct values of the housekeeping gene b-Actin.

CCR6^+IL-17^− TM cells = experiment: IL-17 induction in activated, FACS-sorted CCR6+IL-17- memory T cells cultured with cytokines, intracellular staining after PMA/ionomycin; assay type: cell-based, human; details: for IL-17 expression in CCR6+IL-17- T cells: cultured 6 days in the cytokine, compared with IL-2, FIG. 1e
Experimental: as §2
Manufacturer's protocols (Miltenyi Biotec) for labeling human and mouse IL-17 secreting cells were followed. Briefly, activated T-cells were washed in cold buffer (PBS+0.5% BSA+2 mM EDTA) and labeled with IL-17 catch reagent for 5 minutes on ice. Pre-warmed medium was then added and the cells were incubated at 37° C. on a shaker for 45 minutes. For human IL-17 capture experiments, cells were washed once more with cold buffer and PE-conjugated IL-17 detection antibodies were added and incubated on ice for 10 minutes. For mouse IL-17 capture experiments, all steps were identical, except that the IL-17 detection antibody used was biotinylated, and a secondary staining step using APC-conjugated streptavidin was used. Cells were then washed and stained with additional cell surface antibodies at room temperature for 20 minutes. These cells were then washed once more with cold buffer, resuspended in serum-free RPMI 1640 medium, filtered and FACS sorted. […]

CCR6^− TM cells [2] = experiment: IL-17 induction in sorted CCR6-IL-17- memory T cells cultured with cytokines; assay type: cell-based, human; details: cultured 6 days in the cytokine, restimulation
Experimental: as §1

CCR6^− TM cells [3] = experiment: Cytokine expression in resting CCR6- memory T cells stimulated with IL-7; assay type: cell-based, human
Experimental: as §1

O=c1[nH]c2ccccc2n1C1CCN(Cc2ccc(-c3nc4cc5nc[nH]c5cc4nc3-c3ccccc3)cc2)CC1 [AKTi-1/2]
cytokine-dependent phosphorylation of Akt (Akt): downregulated cytokine-dependent phosphorylation of Akt | cell viability (TM cells): without adversely affecting cell viability | expression of IFNγ (CCR6^+ TM cells): not affected | expression of IL-4 (CCR6^+ TM cells): less reduced | γc-mediated IL-17/IL-22 induction (CCR6^+ TM cells): repressed γc-mediated IL-17/IL-22 induction in a dose-dependent manner

IL-4: another γc-cytokine
IL-17/IL-22 (Th17 cytokine) expression in resting CCR6+ TM cells ([1]; no TCR stimulation, unpublished data): did not promote Th17 cytokine production | TM cell survival ([1]; resting TM cells, unpublished data): did not promote Th17 cytokine production in resting CCR6^+ TM cells or confer TM cell survival

IL-7: γc-cytokine from R&D Systems, used at 20 ng/mL
RORC mRNA expression levels (RORC): neither IL-7 stimulation, nor treatment with PI-3K or Akt inhibitors, nor overexpression of FOXO1 or KLF2 affected RORC mRNA expression levels | IL-17 expression in CCR6+IL-17- T cells (CCR6^+IL-17^− TM cells): induced similar levels of IL-17 expression | IL-17 expression in CCR6- TM cells (CCR6^− TM cells [2]): neither IL-7 nor IL-15 induced IL-17 expression | enhancement of IL-17 expression compared to the same cells ex vivo (day 0) ([1]; 10 days, no TCR stimulation): more than 3 fold | enhancement of IL-22 expression compared to the same cells ex vivo (day 0) ([1]; 10 days, no TCR stimulation): more than 3 fold | increase of cells co-expressing IL-22 or IFNγ with IL-17 ([1]; IL-7 stimulation): more than 5 fold | IFNγ production ([1]; resting CCR6+ or CCR6- TM cells cultured with IL-7): almost no impact | IL-17 or IL-22 expression in CCR6- TM cells (CCR6^− TM cells [3]): failed to express IL-17 or IL-22

IL-15: γc-cytokine from R&D Systems, used at 20 ng/mL
IL-17 expression in CCR6+IL-17- T cells (CCR6^+IL-17^− TM cells): induced similar levels of IL-17 expression | IL-17 expression in CCR6- TM cells (CCR6^− TM cells [2]): neither IL-7 nor IL-15 induced IL-17 expression

IL-23: cytokine from R&D Systems, used at 20 ng/mL; known to enhance Th17 cell differentiation
induction of IL-17/IL-22 expression from CCR6+ human TM cells (CCR6^+IL-17^− TM cells; IL-23 in place of γc cytokines, unpublished data): not able to compensate for γc cytokines | IL-17 expression in CCR6+IL-17- T cells (CCR6^+IL-17^− TM cells): did not influence IL-17 expression | further induction of IL-17 or IL-22 expression in combination with IL-7 ([1]; resting CCR6+ TM cells): did not significantly synergize with IL-7
